According to the NIST ThermoML archive (doi:10.1016/j.tca.2014.02.019):

Assay: xn = mol fraction of the nth substance listed
Conditions: 101 kPa, Liquid; for viscosity: Falling or rolling sphere viscometry; for mass density: Vibrating tube method

CCOS(=O)(=O)[O-].CC[N+]1(C)CCCC1 [1-ethyl-1-methylpyrrolidinium ethyl sulfate] + O
Conditions	mass density [kg/m3]	viscosity [mPa·s]
313.15 K, x1 = 0.0348	1046.88	1.414
313.15 K, x1 = 0.0933	1095.76	3.185
313.15 K, x1 = 0.1312	1114.51	5.031
313.15 K, x1 = 0.2458	1144.25	10.31
313.15 K, x1 = 0.3495	1155.83	15.65
313.15 K, x1 = 0.5281	1166.58	27.98
313.15 K, x1 = 0.693	1171.73	42.48
313.15 K, x1 = 0.7794	1172.62	51.33
313.15 K, x1 = 0.895	1174.19	64.67
313.15 K, x1 = 1	1176.31	78.32
318.15 K, x1 = 0.0348	1044.06	1.27
318.15 K, x1 = 0.0933	1092.47	2.8
318.15 K, x1 = 0.1312	1111.07	4.391
318.15 K, x1 = 0.2458	1140.77	8.889
318.15 K, x1 = 0.3495	1152.31	13.37
318.15 K, x1 = 0.5281	1163.34	23.71
318.15 K, x1 = 0.693	1168.5	35.67
318.15 K, x1 = 0.7794	1169.22	42.9
318.15 K, x1 = 0.895	1171.07	53.73
318.15 K, x1 = 1	1173.63	64.72
323.15 K, x1 = 0.0348	1041.44	1.149
323.15 K, x1 = 0.0933	1089.13	2.479
323.15 K, x1 = 0.1312	1107.59	3.87
323.15 K, x1 = 0.2458	1137.17	7.729
323.15 K, x1 = 0.3495	1149.28	11.6
323.15 K, x1 = 0.5281	1160.06	20.29
323.15 K, x1 = 0.693	1165.16	30.18
323.15 K, x1 = 0.7794	1165.65	36.07
323.15 K, x1 = 0.895	1167.97	44.78
323.15 K, x1 = 1	1170.95	53.51
328.15 K, x1 = 0.0348	1038.48	1.046
328.15 K, x1 = 0.0933	1085.76	2.211
328.15 K, x1 = 0.1312	1103.99	3.392
328.15 K, x1 = 0.2458	1133.19	6.803
328.15 K, x1 = 0.3495	1145.36	10.13
328.15 K, x1 = 0.5281	1156.72	17.54
328.15 K, x1 = 0.693	1161.95	25.84
328.15 K, x1 = 0.7794	1162.9	30.7
328.15 K, x1 = 0.895	1164.87	37.8
328.15 K, x1 = 1	1168.27	44.82
333.15 K, x1 = 0.0348	1035.45	0.992
333.15 K, x1 = 0.0933	1082.31	1.985
333.15 K, x1 = 0.1312	1100.26	2.943
333.15 K, x1 = 0.2458	1129.65	6.014
333.15 K, x1 = 0.3495	1142.23	8.896
333.15 K, x1 = 0.5281	1153.16	15.32
333.15 K, x1 = 0.693	1158.04	22.4
333.15 K, x1 = 0.7794	1160.04	26.46
333.15 K, x1 = 0.895	1162.1	32.29
333.15 K, x1 = 1	1165.59	37.95
338.15 K, x1 = 0.0348	1033.08	0.983
338.15 K, x1 = 0.0933	1079.2	1.8
338.15 K, x1 = 0.1312	1097.07	2.454
338.15 K, x1 = 0.2458	1125.34	5.34
338.15 K, x1 = 0.3495	1138.14	7.739
338.15 K, x1 = 0.5281	1150.02	13.29
338.15 K, x1 = 0.693	1155.15	19.06
338.15 K, x1 = 0.7794	1156.48	22.65
338.15 K, x1 = 0.895	1158.93	27.65
338.15 K, x1 = 1	1162.91	32.87
343.15 K, x1 = 0.0348	1030.38	0.976
343.15 K, x1 = 0.0933	1075.92	1.61
343.15 K, x1 = 0.1312	1093.61	1.923
343.15 K, x1 = 0.2458	1122.44	4.202
343.15 K, x1 = 0.3495	1135.34	6.568
343.15 K, x1 = 0.5281	1146.94	11.31
343.15 K, x1 = 0.693	1152.01	16.47
343.15 K, x1 = 0.7794	1153.23	19.55
343.15 K, x1 = 0.895	1155.85	24.69
343.15 K, x1 = 1	1160.23	29.23
